# Source: patent US11802111B2, “Cyclobutyl amide monoacylglycerol lipase modulators” (Janssen Pharmaceutica NV, priority 2020, dated 2023)
# Biological target: human MGL from HeLa cells (Homo sapiens (Human), UniProt Q99685)
# Test: MGL in vitro activity assay ([glycerol-1,3-3H]-oleoyl glycerol hydrolysis, activated carbon filtration)
# Type: biochemical
# Conditions: 300 nM [Glycerol-1,3-3H]-oleoyl glycerol, one hour
# In short: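 Activity measured as tritium in the flow-through after activated carbon filtration of a 1 h reaction containing 300 nM 3H-oleoyl glycerol, compound and HeLa-derived human MGL. Compounds screened at 10 μM; IC50 series start at an empirically chosen highest concentration.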
# Chain of human MGL from HeLa cells (Q99685 whole entry): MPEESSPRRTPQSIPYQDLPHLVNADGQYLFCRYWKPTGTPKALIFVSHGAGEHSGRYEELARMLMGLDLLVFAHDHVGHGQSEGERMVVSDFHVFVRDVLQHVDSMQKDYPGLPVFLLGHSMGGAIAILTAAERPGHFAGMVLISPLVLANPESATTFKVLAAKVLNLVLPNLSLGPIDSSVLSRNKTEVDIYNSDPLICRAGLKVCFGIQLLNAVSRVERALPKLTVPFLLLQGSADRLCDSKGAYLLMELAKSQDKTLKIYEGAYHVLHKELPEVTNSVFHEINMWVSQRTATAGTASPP
row,Structure (SMILES),IC50
1,"CC(C)(C)c1cccc(C2CC3(CCN(C(=O)[C@H]4C[C@@](C)(O)C4)C3)C2)c1 (stereo partly shown) [Example 89, (2-(3-(tert-Butyl)phenyl)-6-azaspiro[3.4]octan-6-yl)((1s,3s)-3-hydroxy-3-methylcyclobutyl)methanone]",126 nM
2,"COc1cc(C2CCC3(CC2)CN(C(=O)[C@H]2C[C@@](C)(O)C2)C3)ccc1F [Example 103, (7-(4-Fluoro-3-methoxyphenyl)-2-azaspiro[3.5]nonan-2-yl)((1s,3s)-3-hydroxy-3-methylcyclobutyl)methanone]",99 nM
3,"COc1ccc(C2CCC3(CC2)CN(C(=O)[C@H]2C[C@@](C)(O)C2)C3)cc1C [Example 105, ((1s,3s)-3-Hydroxy-3-methylcyclobutyl)(7-(4-methoxy-3-methylphenyl)-2-azaspiro[3.5]nonan-2-yl)methanone]",68 nM
4,"COc1cc(C2CCC3(CC2)CN(C(=O)[C@H]2C[C@@](C)(O)C2)C3)ccc1C(F)(F)F [Example 113, ((1s,3s)-3-Hydroxy-3-methylcyclobutyl)(7-(3-methoxy-4-(trifluoromethyl)phenyl)-2-azaspiro[3.5]nonan-2-yl)methanone]",37 nM
5,"COc1ccc(C2CCC3(CC2)CN(C(=O)[C@H]2C[C@@](C)(O)C2)C3)cc1C(F)(F)F [Example 114, ((1s,3s)-3-Hydroxy-3-methylcyclobutyl)(7-(4-methoxy-3-(trifluoromethyl)phenyl)-2-azaspiro[3.5]nonan-2-yl)methanone]",65 nM
6,"COc1cccc(C2CCC3(CC2)CN(C(=O)[C@H]2C[C@@](C)(O)C2)C3)n1 [Example 117, ((1s,3s)-3-Hydroxy-3-methylcyclobutyl)(7-(6-methoxypyridin-2-yl)-2-azaspiro[3.5]nonan-2-yl)methanone]",420 nM
7,"CCOc1cc(C2CCC3(CC2)CN(C(=O)[C@H]2C[C@@](C)(O)C2)C3)cc(C(F)(F)F)c1 [Example 120, (7-(3-Ethoxy-5-(trifluoromethyl)phenyl)-2-azaspiro[3.5]nonan-2-yl)((1s,3s)-3-hydroxy-3-methylcyclobutyl)methanone]",141 nM
8,"Cn1ncc2cc(C3CCC4(CC3)CN(C(=O)[C@H]3C[C@@](C)(O)C3)C4)ccc21 [Example 122, ((1s,3s)-3-Hydroxy-3-methylcyclobutyl)(7-(1-methyl-1H-indazol-5-yl)-2-azaspiro[3.5]nonan-2-yl)methanone]",143 nM
9,"C[C@]1(O)C[C@@H](C(=O)N2CC3(CCC(c4ccc5ccccc5n4)CC3)C2)C1 [Example 124, ((1s,3s)-3-Hydroxy-3-methylcyclobutyl)(7-(quinolin-2-yl)-2-azaspiro[3.5]nonan-2-yl)methanone]",227 nM
10,"CCOc1cccc(C2CCC3(CC2)CN(C(=O)[C@H]2C[C@@](C)(O)C2)C3)c1 [Example 132, (7-(3-Ethoxyphenyl)-2-azaspiro[3.5]nonan-2-yl)((1s,3s)-3-hydroxy-3-methylcyclobutyl)methanone]",41 nM
11,"Cc1ccc(C2CCC3(CC2)CN(C(=O)[C@H]2C[C@@](C)(O)C2)C3)cc1 [Example 136, ((1s,3s)-3-Hydroxy-3-methylcyclobutyl)(7-(p-tolyl)-2-azaspiro[3.5]nonan-2-yl)methanone]",35 nM
12,"Cc1cccc(C2CCC3(CC2)CN(C(=O)[C@H]2C[C@@](C)(O)C2)C3)c1 [Example 137, ((1s,3s)-3-Hydroxy-3-methylcyclobutyl)(7-(m-tolyl)-2-azaspiro[3.5]nonan-2-yl)methanone]",38 nM
13,"Cc1ccccc1C1CCC2(CC1)CN(C(=O)[C@H]1C[C@@](C)(O)C1)C2 [Example 138, ((1s,3s)-3-Hydroxy-3-methylcyclobutyl)(7-(o-tolyl)-2-azaspiro[3.5]nonan-2-yl)methanone]",47 nM
14,"CC(C)(C)c1cc(C2CCC3(CC2)CN(C(=O)[C@H]2C[C@@](C)(O)C2)C3)ccn1 [Example 139, (7-(2-(tert-Butyl)pyridin-4-yl)-2-azaspiro[3.5]nonan-2-yl)((1s,3s)-3-hydroxy-3-methylcyclobutyl)methanone]",167 nM

# The next compounds have a lower IC50 than those just listed; values first:
row,IC50,Structure (SMILES)
1,33 nM,"COc1cc(C2CCC3(CC2)CN(C(=O)[C@H]2C[C@@](C)(O)C2)C3)ccc1C1CC1 [Example 140, (7-(4-Cyclopropyl-3-methoxyphenyl)-2-azaspiro[3.5]nonan-2-yl)((1s,3s)-3-hydroxy-3-methylcyclobutyl)methanone]"
2,32 nM,"COc1cccc(C2CCC3(CC2)CN(C(=O)[C@H]2C[C@@](C)(O)C2)C3)c1 [Example 131, ((1s,3s)-3-Hydroxy-3-methylcyclobutyl)(7-(3-methoxyphenyl)-2-azaspiro[3.5]nonan-2-yl)methanone]"
3,30 nM,"COc1cccc(C2CCC3(CC2)CN(C(=O)[C@H]2C[C@@](C)(O)C2)C3)c1C [Example 106, ((1s,3s)-3-Hydroxy-3-methylcyclobutyl)(7-(3-methoxy-2-methylphenyl)-2-azaspiro[3.5]nonan-2-yl)methanone]"
4,30 nM,"COc1cc(C)cc(C2CCC3(CC2)CN(C(=O)[C@H]2C[C@@](C)(O)C2)C3)c1 [Example 128, ((1s,3s)-3-Hydroxy-3-methylcyclobutyl)(7-(3-methoxy-5-methylphenyl)-2-azaspiro[3.5]nonan-2-yl)methanone]"
5,27 nM,"CN(C)c1cc(C2CCC3(CC2)CN(C(=O)[C@H]2C[C@@](C)(O)C2)C3)cc(C(F)(F)F)c1 [Example 123, (7-(3-(Dimethylamino)-5-(trifluoromethyl)phenyl)-2-azaspiro[3.5]nonan-2-yl)((1s,3s)-3-hydroxy-3-methylcyclobutyl)methanone]"
6,26 nM,"COc1cc(F)cc(C2CCC3(CC2)CN(C(=O)[C@H]2C[C@@](C)(O)C2)C3)c1 [Example 104, (7-(3-Fluoro-5-methoxyphenyl)-2-azaspiro[3.5]nonan-2-yl)((1s,3s)-3-hydroxy-3-methylcyclobutyl)methanone]"
7,25 nM,"COc1cc(C2CCC3(CC2)CN(C(=O)[C@H]2C[C@@](C)(O)C2)C3)ccc1C [Example 129, ((1s,3s)-3-Hydroxy-3-methylcyclobutyl)(7-(3-methoxy-4-methylphenyl)-2-azaspiro[3.5]nonan-2-yl)methanone]"
8,20 nM,"COc1ccc(C2CCC3(CC2)CN(C(=O)[C@H]2C[C@@](C)(O)C2)C3)cc1C(C)(C)C [Example 118, (7-(3-(tert-Butyl)-4-methoxyphenyl)-2-azaspiro[3.5]nonan-2-yl)((1s,3s)-3-hydroxy-3-methylcyclobutyl)methanone]"
9,17 nM,"Cc1cc([C@H]2CCC3(C2)CN(C(=O)[C@H]2C[C@@](C)(O)C2)C3)ccc1Cl [Example 70, ((S)-6-(4-Chloro-3-methylphenyl)-2-azaspiro[3.4]octan-2-yl)((1s,3R)-3-hydroxy-3-methylcyclobutyl)methanone]"
10,17 nM,"CN(C)c1cc(C2CCC3(CC2)CN(C(=O)[C@H]2C[C@@](C)(O)C2)C3)ccc1C(F)(F)F [Example 115, (7-(3-(Dimethylamino)-4-(trifluoromethyl)phenyl)-2-azaspiro[3.5]nonan-2-yl)((1s,3s)-3-hydroxy-3-methylcyclobutyl)methanone]"
11,17 nM,"CC(C)c1ccc(C2CCC3(CC2)CN(C(=O)[C@H]2C[C@@](C)(O)C2)C3)cc1 [Example 130, ((1s,3s)-3-Hydroxy-3-methylcyclobutyl)(7-(4-isopropylphenyl)-2-azaspiro[3.5]nonan-2-yl)methanone]"
12,15 nM,"Cc1cc([C@@H]2CCC3(C2)CN(C(=O)[C@H]2C[C@@](C)(O)C2)C3)ccc1Cl [Example 69, ((R)-6-(4-Chloro-3-methylphenyl)-2-azaspiro[3.4]octan-2-yl)((1s,3S)-3-hydroxy-3-methylcyclobutyl)methanone]"
13,14 nM,"C[C@]1(O)C[C@@H](C(=O)N2CC3(CCC(c4ccc5c(c4)CCC5)CC3)C2)C1 [Example 127, (7-(2,3-Dihydro-1H-inden-5-yl)-2-azaspiro[3.5]nonan-2-yl)((1s,3s)-3-hydroxy-3-methylcyclobutyl)methanone]"
14,12 nM,"COc1cc(C2CCC3(CC2)CN(C(=O)[C@H]2C[C@@](C)(O)C2)C3)cc(C(F)(F)F)c1 [Example 119, ((1s,3s)-3-Hydroxy-3-methylcyclobutyl)(7-(3-methoxy-5-(trifluoromethyl)phenyl)-2-azaspiro[3.5]nonan-2-yl)methanone]"
15,12 nM,"Cc1ccc(C2CCC3(CC2)CN(C(=O)[C@H]2C[C@@](C)(O)C2)C3)cc1C [Example 134, (7-(3,4-Dimethylphenyl)-2-azaspiro[3.5]nonan-2-yl)((1s,3s)-3-hydroxy-3-methylcyclobutyl)methanone]"
16,8.2 nM,"CC(C)c1cccc(C2CCC3(CC2)CN(C(=O)[C@H]2C[C@@](C)(O)C2)C3)c1 [Example 133, ((1s,3s)-3-Hydroxy-3-methylcyclobutyl)(7-(3-isopropylphenyl)-2-azaspiro[3.5]nonan-2-yl)methanone]"
17,7.4 nM,"CCc1cc(C)cc(C2CCC3(CC2)CN(C(=O)[C@H]2C[C@@](C)(O)C2)C3)c1 [Example 121, (7-(3-Ethyl-5-methylphenyl)-2-azaspiro[3.5]nonan-2-yl)((1s,3s)-3-hydroxy-3-methylcyclobutyl)methanone]"
18,5.5 nM,"C[C@]1(O)C[C@@H](C(=O)N2CC3(CC[C@@H](c4ccc(C5CC5)cc4)C3)C2)C1 [Example 51, ((R)-6-(4-Cyclopropylphenyl)-2-azaspiro[3.4]octan-2-yl)((1s,3S)-3-hydroxy-3-methylcyclobutyl)methanone]"
19,4.4 nM,"CC(C)(C)c1cccc(C2CCC3(CC2)CN(C(=O)[C@H]2C[C@@](C)(O)C2)C3)n1 [Example 116, (7-(6-(tert-Butyl)pyridin-2-yl)-2-azaspiro[3.5]nonan-2-yl)((1s,3s)-3-hydroxy-3-methylcyclobutyl)methanone]"
20,2.1 nM,"CC(C)(C)c1cccc(C2CCC3(CC2)CN(C(=O)[C@H]2C[C@@](C)(O)C2)C3)c1 [Example 135, (7-(3-(tert-Butyl)phenyl)-2-azaspiro[3.5]nonan-2-yl)((1s,3s)-3-hydroxy-3-methylcyclobutyl)methanone]"
